Results taken from the NIST ThermoML archive (doi:10.1016/j.jct.2015.01.001).
Where “and” joins values, the source holds several entries; their conditions need not be identical. Equal entries are not always repeated. Numbers after ± are expanded uncertainties.

Legend:
[1] = xn = mol fraction of the nth substance listed; settings: Liquid; for viscosity: Falling or rolling sphere viscometry; for mass density: Vibrating tube method
[2] = Liquid; for vapor or sublimation pressure: Closed cell (Static) method; for viscosity: Falling or rolling sphere viscometry; for mass density: Vibrating tube method
[3] = 298.15 K, 467.6 kPa, x1 = 0.037
[4] = 298.15 K, 1827.6 kPa, x1 = 0.155
[5] = 298.15 K, 2059.2 kPa, x1 = 0.176
[6] = 298.15 K, 2411.7 kPa, x1 = 0.207
[7] = 298.15 K, 2609.8 kPa, x1 = 0.225
[8] = 298.15 K, 3070.8 kPa, x1 = 0.268
[9] = 303.15 K, 514.4 kPa, x1 = 0.034
[10] = 303.15 K, 1357.8 kPa, x1 = 0.099
[11] = 303.15 K, 2202.1 kPa, x1 = 0.164
[12] = 303.15 K, 2582.4 kPa, x1 = 0.194
[13] = 303.15 K, 2803.7 kPa, x1 = 0.212
[14] = 303.15 K, 3272.7 kPa, x1 = 0.249
[15] = 308.15 K, 543.8 kPa, x1 = 0.032
[16] = 308.15 K, 1454.6 kPa, x1 = 0.094
[17] = 308.15 K, 2129.6 kPa, x1 = 0.14
[18] = 308.15 K, 2391.6 kPa, x1 = 0.158
[19] = 308.15 K, 2760.3 kPa, x1 = 0.184
[20] = 308.15 K, 3001.7 kPa, x1 = 0.201
[21] = 308.15 K, 3529.4 kPa, x1 = 0.238
[22] = 313.15 K, 629.5 kPa, x1 = 0.031
[23] = 313.15 K, 1587.2 kPa, x1 = 0.091
[24] = 313.15 K, 2265.6 kPa, x1 = 0.133
[25] = 313.15 K, 2523.6 kPa, x1 = 0.149
[26] = 313.15 K, 2943.3 kPa, x1 = 0.175
[27] = 313.15 K, 3205.9 kPa, x1 = 0.191
[28] = 313.15 K, 3774.9 kPa, x1 = 0.227

Q: For `O=C=O` [carbon dioxide] + CO, which viscosity [1, 3] is on record?
A: 0.523 ± 0.05 mPa·s

Q: What about the mass density [1, 3] of the same molecule?
A: 792.7 ± 1 kg/m3

Q: What about the viscosity [1, 4] of the same molecule?
A: 0.45 ± 0.05 mPa·s

Q: And the mass density [1, 4]?
A: 811.4 ± 1.1 kg/m3

Q: And the viscosity [1, 5]?
A: 0.436 ± 0.05 mPa·s

Q: And the mass density [1, 5]?
A: 814.6 ± 1.1 kg/m3

Q: What about the viscosity [1, 6] of the same molecule?
A: 0.418 ± 0.05 mPa·s

Q: And the mass density [1, 6]?
A: 819.5 ± 1.1 kg/m3

Q: What about the viscosity [1, 7] of the same molecule?
A: 0.407 ± 0.05 mPa·s

Q: And the mass density [1, 7]?
A: 822.2 ± 1.1 kg/m3

Q: What about the viscosity [1, 8] of the same molecule?
A: 0.383 ± 0.05 mPa·s

Q: And the mass density [1, 8]?
A: 828.6 ± 1.2 kg/m3

Q: What about the viscosity [1, 9] of the same molecule?
A: 0.497 ± 0.05 mPa·s

Q: And the mass density [1, 9]?
A: 787 ± 1 kg/m3

Q: And the viscosity [1, 10]?
A: 0.459 ± 0.05 mPa·s

Q: And the mass density [1, 10]?
A: 796.3 ± 1 kg/m3

Q: And the viscosity [1, 11]?
A: 0.421 ± 0.05 mPa·s

Q: What about the mass density [1, 11] of the same molecule?
A: 805.7 ± 1.1 kg/m3

Q: What about the viscosity [1, 12] of the same molecule?
A: 0.403 ± 0.05 mPa·s

Q: What about the mass density [1, 12] of the same molecule?
A: 809.9 ± 1.1 kg/m3

Q: What about the viscosity [1, 13] of the same molecule?
A: 0.392 ± 0.05 mPa·s

Q: And the mass density [1, 13]?
A: 812.4 ± 1.1 kg/m3

Q: What about the viscosity [1, 14] of the same molecule?
A: 0.37 ± 0.05 mPa·s

Q: What about the mass density [1, 14] of the same molecule?
A: 817.7 ± 1.1 kg/m3

Q: And the viscosity [1, 15]?
A: 0.467 ± 0.05 mPa·s

Q: What about the mass density [1, 15] of the same molecule?
A: 783.2 ± 1 kg/m3

Q: And the viscosity [1, 16]?
A: 0.434 ± 0.051 mPa·s

Q: What about the mass density [1, 16] of the same molecule?
A: 791.6 ± 1 kg/m3

Q: And the viscosity [1, 17]?
A: 0.408 ± 0.05 mPa·s

Q: And the mass density [1, 17]?
A: 797.9 ± 1 kg/m3

Q: What about the viscosity [1, 18] of the same molecule?
A: 0.398 ± 0.05 mPa·s

Q: And the mass density [1, 18]?
A: 800.3 ± 1.1 kg/m3

Q: What about the viscosity [1, 19] of the same molecule?
A: 0.385 ± 0.05 mPa·s

Q: What about the mass density [1, 19] of the same molecule?
A: 803.7 ± 1.1 kg/m3

Q: What about the viscosity [1, 20] of the same molecule?
A: 0.375 ± 0.05 mPa·s

Q: What about the mass density [1, 20] of the same molecule?
A: 806 ± 1.1 kg/m3

Q: What about the viscosity [1, 21] of the same molecule?
A: 0.356 ± 0.05 mPa·s

Q: What about the mass density [1, 21] of the same molecule?
A: 810.9 ± 1.1 kg/m3

Q: What about the viscosity [1, 22] of the same molecule?
A: 0.443 ± 0.05 mPa·s

Q: And the mass density [1, 22]?
A: 777.5 ± 1 kg/m3

Q: What about the viscosity [1, 23] of the same molecule?
A: 0.41 ± 0.05 mPa·s

Q: What about the mass density [1, 23] of the same molecule?
A: 787.1 ± 1 kg/m3

Q: And the viscosity [1, 24]?
A: 0.39 ± 0.05 mPa·s

Q: And the mass density [1, 24]?
A: 793.6 ± 1 kg/m3

Q: And the viscosity [1, 25]?
A: 0.378 ± 0.05 mPa·s

Q: What about the mass density [1, 25] of the same molecule?
A: 796 ± 1.1 kg/m3

Q: What about the viscosity [1, 26] of the same molecule?
A: 0.368 ± 0.05 mPa·s

Q: And the mass density [1, 26]?
A: 800.1 ± 1.1 kg/m3

Q: And the viscosity [1, 27]?
A: 0.356 ± 0.05 mPa·s

Q: And the mass density [1, 27]?
A: 802.6 ± 1.1 kg/m3

Q: And the viscosity [1, 28]?
A: 0.337 ± 0.05 mPa·s

Q: And the mass density [1, 28]?
A: 808 ± 1.1 kg/m3

Q: With `CO` [methanol] as the molecule, how does the “vapor or sublimation pressure” value ([2]; 298.15 K) read?
A: 17 ± 0.4 kPa

Q: What about the viscosity ([2]; 298.15 K) of the same molecule?
A: 0.544 ± 0.05 mPa·s

Q: And the mass density ([2]; 298.15 K)?
A: 786.7 ± 1 kg/m3

Q: And the “vapor or sublimation pressure” value ([2]; 303.15 K)?
A: 21.9 ± 0.4 kPa

Q: And the viscosity ([2]; 303.15 K)?
A: 0.512 ± 0.05 mPa·s

Q: What about the mass density ([2]; 303.15 K) of the same molecule?
A: 782 ± 1 kg/m3

Q: And the “vapor or sublimation pressure” value ([2]; 308.15 K)?
A: 27.9 ± 0.4 kPa

Q: And the viscosity ([2]; 308.15 K)?
A: 0.486 ± 0.05 mPa·s

Q: And the mass density ([2]; 308.15 K)?
A: 777.3 ± 1 kg/m3

Q: What about the “vapor or sublimation pressure” value ([2]; 313.15 K) of the same molecule?
A: 35.6 ± 0.4 kPa

Q: And the viscosity ([2]; 313.15 K)?
A: 0.46 ± 0.05 mPa·s

Q: And the mass density ([2]; 313.15 K)?
A: 772.5 ± 1 kg/m3

Q: With `CO` [methanol] + O=C=O as the molecule, how does the viscosity ([1]; 298.15 K, 17 kPa, x2 = 0) read?
A: 0.544 ± 0.05 mPa·s

Q: And the mass density ([1]; 298.15 K, 17 kPa, x2 = 0)?
A: 786.7 ± 1 kg/m3

Q: What about the viscosity ([1]; 303.15 K, 21.9 kPa, x2 = 0) of the same molecule?
A: 0.512 ± 0.05 mPa·s

Q: And the mass density ([1]; 303.15 K, 21.9 kPa, x2 = 0)?
A: 782 ± 1 kg/m3

Q: What about the viscosity ([1]; 308.15 K, 27.9 kPa, x2 = 0) of the same molecule?
A: 0.486 ± 0.05 mPa·s

Q: What about the mass density ([1]; 308.15 K, 27.9 kPa, x2 = 0) of the same molecule?
A: 777.3 ± 1 kg/m3

Q: And the viscosity ([1]; 313.15 K, 35.6 kPa, x2 = 0)?
A: 0.46 ± 0.05 mPa·s

Q: And the mass density ([1]; 313.15 K, 35.6 kPa, x2 = 0)?
A: 772.5 ± 1 kg/m3

Q: For `O=S1(=O)CCCC1` [sulfolane], which viscosity ([2]; 303.15 K) is on record?
A: 10.3 ± 0.3 mPa·s and 10.2 ± 0.3 mPa·s

Q: And the mass density ([2]; 303.15 K)?
A: 1262 ± 1 kg/m3

Q: What about the viscosity ([2]; 313.15 K) of the same molecule?
A: 8.01 ± 0.21 mPa·s

Q: And the mass density ([2]; 313.15 K)?
A: 1253 ± 1 kg/m3

Q: What about the viscosity ([2]; 323.15 K) of the same molecule?
A: 6.32 ± 0.17 mPa·s

Q: And the mass density ([2]; 323.15 K)?
A: 1244 ± 1 kg/m3

Q: And the viscosity ([2]; 333.15 K)?
A: 5.16 ± 0.14 mPa·s

Q: And the mass density ([2]; 333.15 K)?
A: 1235 ± 1 kg/m3

Q: And the viscosity ([2]; 343.15 K)?
A: 4.22 ± 0.11 mPa·s

Q: And the mass density ([2]; 343.15 K)?
A: 1226 ± 1 kg/m3

Q: What about the viscosity ([2]; 353.15 K) of the same molecule?
A: 3.5 ± 0.1 mPa·s

Q: What about the mass density ([2]; 353.15 K) of the same molecule?
A: 1218 ± 1 kg/m3

Q: What about the viscosity ([2]; 363.15 K) of the same molecule?
A: 2.92 ± 0.07 mPa·s

Q: What about the mass density ([2]; 363.15 K) of the same molecule?
A: 1209 ± 1 kg/m3
